# Data taken from US10273237B2, “Imidazopyridazine compounds useful as modulators of IL-12, IL-23 and/or IFN-α responses” (BRISTOL-MYERS SQUIBB COMPANY, priority 2013, dated 2019).
# What was measured:
# [1] = tested on: IFNα-stimulated Kit225 T cells with STAT-dependent luciferase reporter; test: Kit225 T cell assay, STAT-dependent luciferase reporter, IFNα stimulated; type: cell-based, human; settings: 200 U/mL human recombinant IFNα, 5-6 hours, read-out: IFNa Kit225 Reporter, LE (IC50)
# Description: (§1) Kit225 T cells with a stably-integrated STAT-dependent luciferase reporter were plated in RPMI (GIBCO) containing 10% heat-inactivated FBS (GIBCO) and 100 U/mL PenStrep (GIBCO). The cells were then stimulated with either 20 ng/mL human recombinant IL-23 or 200 U/mL human recombinant IFNα (PBL InterferonSource) for 5-6 hours. Luciferase expression was measured using the STEADY-GLO® Luciferase Assay System (PROMEGA®) according to the manufacturer's instructions.
# [2] = tested on: IL-23-stimulated Kit225 T cells with STAT-dependent luciferase reporter; test: Kit225 T cell assay, STAT-dependent luciferase reporter, IL-23 stimulated; type: cell-based, human; settings: 20 ng/mL human recombinant IL-23, 5-6 hours, read-out: IL-23 Kit225 Reporter, LE (IC50)
# Description: as §1
Structure (SMILES),IC50 [1],IC50 [2]
CNc1cc(Nc2cccn(-c3ncccc3F)c2=O)nn2c(C(=O)N[C@@H]3C[C@@H]3F)cnc12 [Example 42],20 nM,50 nM
CNc1cc(Nc2cc(Cl)cn(C)c2=O)nn2c(C(=O)NC3(C#N)CCC3)cnc12 [Example 43],110 nM,590 nM
CNc1cc(Nc2cccn(C3CC3)c2=O)nn2c(C(=O)NC3CC3)cnc12 [Example 44],130 nM,380 nM
CNc1cc(Nc2cccn(C3CC3)c2=O)nn2c(C(=O)NC3(C#N)CC3)cnc12 [Example 45],200 nM,370 nM
CNc1cc(Nc2cccn(-c3cccc(C)n3)c2=O)nn2c(C(=O)NC3CC3)cnc12 [Example 46],160 nM,360 nM
CNc1cc(Nc2cccn(-c3cccc(C)n3)c2=O)nn2c(C(=O)NC3CCC3)cnc12 [Example 47],40 nM,110 nM
CNc1cc(Nc2cccn(-c3cccc(C)n3)c2=O)nn2c(C(=O)N[C@@H]3C[C@@H]3F)cnc12 [Example 49],50 nM,20 nM
CNc1cc(Nc2cc(F)cn(C3CC3)c2=O)nn2c(C(=O)NC3(C#N)CC3)cnc12 [Example 51],220 nM,160 nM
CNc1cc(Nc2cccn(-c3ncccn3)c2=O)nn2c(C(=O)NC3CCC3)cnc12 [Example 52],130 nM,210 nM
CNc1cc(Nc2cccn(-c3cccc(F)c3)c2=O)nn2c(C(=O)NC3(C#N)CC3)cnc12 [Example 53],80 nM,170 nM
CNc1cc(Nc2cccn(-c3ncccn3)c2=O)nn2c(C(=O)N[C@@H]3C[C@@H]3F)cnc12 [Example 55],230 nM,180 nM
CNc1cc(Nc2cccn(-c3ccon3)c2=O)nn2c(C(=O)NC3CCC3)cnc12 [Example 56],30 nM,60 nM
CNc1cc(Nc2cccn(C)c2=O)nn2c(C(=O)N[C@@H]3CCOC3)cnc12 [Example 57],520 nM,300 nM
CNc1cc(Nc2cccn(C)c2=O)nn2c(C(=O)N[C@H]3CCOC3)cnc12 [Example 58],970 nM,90 nM
CNc1cc(Nc2cccn(-c3ccccn3)c2=O)nn2c(C(=O)N[C@@H]3CCOC3)cnc12 [Example 62],270 nM,640 nM
CNc1cc(Nc2cccn(-c3ccc(C)nn3)c2=O)nn2c(C(=O)NC3CCC3)cnc12 [Example 64],30 nM,40 nM
CNc1cc(Nc2cccn(-c3ccc(C)nn3)c2=O)nn2c(C(=O)N[C@@H]3C[C@@H]3F)cnc12 [Example 65],40 nM,60 nM
CCNC(=O)c1cnc2c(NC)cc(Nc3cccn(-c4ccccn4)c3=O)nn12 [Example 66],180 nM,90 nM
CCNC(=O)c1cnc2c(NC)cc(Nc3cccn(-c4cccc(F)n4)c3=O)nn12 [Example 67],140 nM,70 nM
CNc1cc(Nc2cccn(C)c2=O)nn2c(C(=O)NC3CCC3)cnc12 [Example 68],10 nM,30 nM
CNc1cc(Nc2cncn(-c3ccccn3)c2=O)nn2c(C(=O)NC3CCC3)cnc12 [Example 71],120 nM,210 nM

Structure (SMILES),IC50 [1],IC50 [2]
CNc1cc(Nc2cccn(-c3cccc(C(C)(C)O)n3)c2=O)nn2c(C(=O)NC3CCC3)cnc12 [Example 77],30 nM,20 nM
CNc1cc(Nc2cncn(-c3ccc(C)nn3)c2=O)nn2c(C(=O)NC3CCC3)cnc12 [Example 78],180 nM,230 nM
CNc1cc(Nc2cncn(-c3ccc(C)nn3)c2=O)nn2c(C(=O)N[C@@H]3C[C@@H]3F)cnc12 [Example 80],330 nM,1740 nM
CNc1cc(Nc2cccn(-c3cccc(C(C)(C)O)n3)c2=O)nn2c(C(=O)NC3CC3)cnc12 [Example 81],120 nM,180 nM
CNc1cc(Nc2cccn(-c3cccc(C(C)(C)O)n3)c2=O)nn2c(C(=O)N[C@@H]3C[C@@H]3F)cnc12 [Example 82],40 nM,40 nM
CNc1cc(Nc2nccn(C)c2=O)nn2c(C(=O)NC3CCC3)cnc12 [Example 84],4270 nM,3860 nM
CNc1cc(Nc2cc(C)cn(-c3ccc(C)nn3)c2=O)nn2c(C(=O)NC3CC3)cnc12 [Example 91],150 nM,230 nM
CNc1cc(Nc2cc(C)cn(-c3ccc(C)nn3)c2=O)nn2c(C(=O)NC3CCC3)cnc12 [Example 92],620 nM,420 nM
CNc1cc(Nc2cc(F)cn(-c3ccc(C)nn3)c2=O)nn2c(C(=O)NC3CC3)cnc12 [Example 94],50 nM,40 nM
CNc1cc(Nc2cccn(-c3ccc(C)nn3)c2=O)nn2c(C(=O)NC3CCCC3)cnc12 [Example 95],150 nM,160 nM
CNc1cc(Nc2cccn(-c3ccc(C)nn3)c2=O)nn2c(C(=O)NC(C)C)cnc12 [Example 97],110 nM,190 nM
CNc1cc(Nc2cccn(-c3ccc(C4CC4)nn3)c2=O)nn2c(C(=O)N[C@@H]3C[C@@H]3F)cnc12 [Example 98],20 nM,40 nM
CCNC(=O)c1cnc2c(NC)cc(Nc3cccn(-c4ccc(C)nn4)c3=O)nn12 [Example 99],230 nM,110 nM
CCCc1ccc(-n2cccc(Nc3cc(NC)c4ncc(C(=O)N[C@@H]5C[C@@H]5F)n4n3)c2=O)nn1 [Example 100],30 nM,40 nM
CNc1cc(Nc2cccn(-c3ccc(C)nn3)c2=O)nn2c(C(=O)NCCF)cnc12 [Example 102],260 nM,260 nM
CNc1cc(Nc2cccn(-c3cnc(C)cn3)c2=O)nn2c(C(=O)N[C@@H]3C[C@@H]3F)cnc12 [Example 103],20 nM,60 nM
CNc1cc(Nc2cccn(-c3cccnn3)c2=O)nn2c(C(=O)NC3CCC3)cnc12 [Example 104],80 nM,200 nM
CCC(C)NC(=O)c1cnc2c(NC)cc(Nc3cccn(-c4cccnn4)c3=O)nn12 (stereo not shown) [Example 105],90 nM,320 nM
CCNC(=O)c1cnc2c(NC)cc(Nc3cccn(-c4ccn(C)n4)c3=O)nn12 [Example 107],270 nM,230 nM
CNc1cc(Nc2cccn(-c3ccn(C)n3)c2=O)nn2c(C(=O)NC(C)C)cnc12 [Example 108],80 nM,210 nM
CNc1cc(Nc2cccn(-c3cccnn3)c2=O)nn2c(C(=O)NCC(C)C)cnc12 [Example 112],520 nM,280 nM

Structure (SMILES),IC50 [1],IC50 [2]
CNc1cc(Nc2cccn(C)c2=O)nn2c(C(=O)N[C@@H]3C[C@@H]3F)cnc12 [Example 116],50 nM,80 nM
CNc1cc(Nc2cccn(C)c2=O)nn2c(C(=O)NCC(C)(C)CO)cnc12 [Example 117],150 nM,240 nM
CNc1cc(Nc2cccn(-c3ccccc3)c2=O)nn2c(C(=O)NC3CC3)cnc12 [Example 119],120 nM,80 nM
CNc1cc(Nc2cccn(-c3ccccc3)c2=O)nn2c(C(=O)NC3(C#N)CC3)cnc12 [Example 120],70 nM,200 nM
CNc1cc(Nc2cc(F)cn(CC(C)(C)O)c2=O)nn2c(C(=O)NC3CC3)cnc12 [Example 121],290 nM,590 nM
CNc1cc(Nc2cccn(-c3ccncc3)c2=O)nn2c(C(=O)NC3CC3)cnc12 [Example 128],240 nM,440 nM
CNc1cc(Nc2cccn(C)c2=O)nn2c(C(=O)NC(C)C#N)cnc12 (stereo not shown) [Example 129],160 nM,440 nM
CNc1cc(Nc2cccn(C)c2=O)nn2c(C(=O)NC(C)(C)C#N)cnc12 [Example 130],310 nM,640 nM
CNc1cc(Nc2cccn(-c3ccnc(F)c3)c2=O)nn2c(C(=O)NC3CC3)cnc12 [Example 134],140 nM,220 nM
CNc1cc(Nc2cccn(-c3ccc(C(C)O)cc3)c2=O)nn2c(C(=O)NC3CC3)cnc12 (stereo not shown) [Example 135],240 nM,280 nM
CNc1cc(Nc2cccn(-c3ccc(C(F)(F)F)cc3)c2=O)nn2c(C(=O)NC3(C#N)CC3)cnc12 [Example 137],140 nM,290 nM
CNc1cc(Nc2cccn(-c3ccc(N4CCOCC4)cc3)c2=O)nn2c(C(=O)NC3CC3)cnc12 [Example 139],190 nM,250 nM
CNc1cc(Nc2cccn(-c3ccc(C(C)O)cc3)c2=O)nn2c(C(=O)N[C@@H]3C[C@@H]3F)cnc12 (stereo partly shown) [Example 141],180 nM,160 nM
CNc1cc(Nc2cccn(-c3ccc(C(C)O)cc3)c2=O)nn2c(C(=O)NC3CCC3)cnc12 (stereo not shown) [Example 142],90 nM,70 nM
CNc1cc(Nc2cccn(-c3cccc(F)n3)c2=O)nn2c(C(=O)NC3CC3)cnc12 [Example 144],80 nM,140 nM
CNc1cc(Nc2cccn(-c3ccc(N4CCOCC4)cc3)c2=O)nn2c(C(=O)NC3CC3F)cnc12 (stereo not shown) [Example 147],20 nM,30 nM
CNc1cc(Nc2cccn(-c3ccccc3)c2=O)nn2c(C(=O)NC3(C#N)CCC3)cnc12 [Example 148],280 nM,120 nM
CNc1cc(Nc2cc(F)cn(-c3ccccn3)c2=O)nn2c(C(=O)NC3CC3)cnc12 [Example 149],60 nM,70 nM
CNc1cc(Nc2cc(F)cn(-c3ccccn3)c2=O)nn2c(C(=O)NC3CCC3)cnc12 [Example 150],20 nM,60 nM
CNc1cc(Nc2cc(F)cn(-c3ccccn3)c2=O)nn2c(C(=O)N[C@@H]3C[C@@H]3F)cnc12 [Example 151],20 nM,30 nM
